Tests used:
Test in all cases: NCI one-dose screen
[1] = tested on: HCT-116; format: cell-based, human; conditions: HCT-116, 10 µM; for activity at 10 µM: Homo sapiens, read-out: Growth Percent
Protocol: (§1) For screening of anticancer properties, all the developed compounds were chosen by the (NCI) for in-vitro antitumor evaluation. The assay was carried out using 59 human cancer cell lines obtained from nine tumour subpanels (breast, ovarian, melanoma, leukaemia, renal, CNS, lung, prostate, and colon cancer cell lines). Compounds were assessed at a 10 µM concentration. […] Also, hybrids 4a, 4b, 4e, 4i and 4j produced significant anti-proliferative effect in several cancer cells, particularly in leukaemia (RPMI-8226) and colon (HCT116) cells with growth percent of 47.87, −14.59, −24.56, −24.42, −15.84, −9.74, −53.36, −10.26, −31.29, and −39.51%, respectively.
(§2) The method description for NCI anticancer screening is provided in detail in the standard NCI-60 testing protocol.

[2] = tested on: RPMI-8226; format: cell-based, human; conditions: Homo sapiens; RPMI-8226, 10 µM; read-out: Growth Percent
Protocol: as §1, §2

[3] = tested on: HS 578T; format: cell-based; conditions: Homo sapiens, read-out: Growth Percent
Outline: (§3)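 Single dose, 10 µM; 59-line human tumour panel (nine subpanels); read-out growth percent per NCI-60 standard method.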

[4] = tested on: SK-MEL-5; format: cell-based; conditions: Homo sapiens; SK-MEL-5, 10 µM; read-out: Growth Percent
Outline: as §3

[5] = tested on: PC-3; format: cell-based; conditions: Homo sapiens; PC-3, 10 µM; read-out: Growth Percent
Outline: as §3

[6] = tested on: TK-10; format: cell-based; conditions: Homo sapiens; TK-10, 10 µM; read-out: Growth Percent
Outline: as §3

[7] = tested on: OVCAR-5; format: cell-based; conditions: Homo sapiens; OVCAR-5, 10 µM; read-out: Growth Percent
Outline: as §3

[8] = tested on: MALME-3M; format: cell-based; conditions: Homo sapiens, read-out: Growth Percent
Outline: as §3

[9] = tested on: CAKI-1; format: cell-based; conditions: Homo sapiens; CAKI-1, 10 µM; read-out: Growth Percent
Outline: as §3

[10] = tested on: MDA-MB-231/ATCC; format: cell-based; conditions: Homo sapiens, read-out: Growth Percent
Outline: as §3

[11] = tested on: UO-31; format: cell-based; conditions: Homo sapiens; UO-31, 10 µM; read-out: Growth Percent
Outline: as §3

[12] = tested on: BT-549; format: cell-based; conditions: Homo sapiens; BT-549, 10 µM; read-out: Growth Percent
Outline: as §3

[13] = tested on: OVCAR-4; format: cell-based; conditions: Homo sapiens; OVCAR-4, 10 µM; read-out: Growth Percent
Outline: as §3

[14] = tested on: RXF 393; format: cell-based; conditions: Homo sapiens; RXF 393, 10 µM; read-out: Growth Percent
Outline: as §3

[15] = tested on: SNB-19; format: cell-based; conditions: Homo sapiens; SNB-19, 10 µM; read-out: Growth Percent
Outline: as §3

[16] = tested on: COLO 205; format: cell-based; conditions: Homo sapiens; COLO 205, 10 µM; read-out: Growth Percent
Outline: as §3

[17] = tested on: HOP-62; format: cell-based; conditions: Homo sapiens; HOP-62, 10 µM; read-out: Growth Percent
Outline: as §3

[18] = tested on: HOP-92; format: cell-based; conditions: Homo sapiens; HOP-92, 10 µM; read-out: Growth Percent
Outline: as §3

[19] = tested on: T-47D; format: cell-based; conditions: Homo sapiens, T47D, read-out: Growth Percent
Outline: as §3

[20] = tested on: IGROV1; format: cell-based; conditions: Homo sapiens, IGROV-1; IGROV1, 10 µM; read-out: Growth Percent
Outline: as §3

[21] = tested on: SK-OV-3; format: cell-based; conditions: Homo sapiens; SK-OV-3, 10 µM; read-out: Growth Percent
Outline: as §3

[22] = tested on: NCI/ADR-RES; format: cell-based; conditions: Homo sapiens, read-out: Growth Percent
Outline: as §3

[23] = tested on: SK-MEL-2; format: cell-based; conditions: Homo sapiens; SK-MEL-2, 10 µM; read-out: Growth Percent
Outline: as §3

[24] = tested on: HL-60(TB); format: cell-based; conditions: Homo sapiens, read-out: Growth Percent
[25] = tested on: K-562; format: cell-based; conditions: Homo sapiens, K562; K-562, 10 µM; read-out: Growth Percent
Outline: as §3

[26] = tested on: 786-0; format: cell-based; conditions: Homo sapiens; 786-0, 10 µM; read-out: Growth Percent
Outline: as §3

[27] = tested on: UACC-62; format: cell-based; conditions: Homo sapiens; UACC-62, 10 µM; read-out: Growth Percent
Outline: as §3

Structure (SMILES) | activity at 10 µM [1] [%] | activity at 10 µM [2] [%] | activity at 10 µM [3] [%] | activity at 10 µM [4] [%] | activity at 10 µM [5] [%] | activity at 10 µM [6] [%] | activity at 10 µM [7] [%] | activity at 10 µM [8] [%] | activity at 10 µM [9] [%] | activity at 10 µM [10] [%] | activity at 10 µM [11] [%] | activity at 10 µM [12] [%] | activity at 10 µM [13] [%] | activity at 10 µM [14] [%] | activity at 10 µM [15] [%] | activity at 10 µM [16] [%] | activity at 10 µM [17] [%] | activity at 10 µM [18] [%] | activity at 10 µM [19] [%] | activity at 10 µM [20] [%] | also measured
O=C(/C=C/c1ccccc1)c1ccc(-n2cc(CN3CCN(c4cc5c(cc4F)c(=O)c(C(=O)O)cn5C4CC4)CC3)nn2)cc1 [Compound 4a, (E) 7-(4-((1–(4-Cinnamoylphenyl)-1H-1,2,3-triazol-4-yl)methyl)piperazin-1-yl)-1-cyclopropyl-6-fluoro-4-oxo-1,4-dihydroquinoline-3-carboxylic acid] | -9.74 | 47.9 | 80.6 | 84.3 | 83.9 | 103 | 103 | 94.9 | 87.8 | 97.1 | 63.1 | 102 | 102 | 72 | 98.2 | 110 | 78.7 | 79.9 | 96.4 | 75.3 | Growth Percent [1]: -9.74%; activity at 10 µM [21]: 84.9%; activity at 10 µM [22]: 87.9%; activity at 10 µM [23]: 96.4%; activity at 10 µM [24]: 99%; activity at 10 µM [25]: 101%; activity at 10 µM [26]: 87.9%; activity at 10 µM [27]: 90.5%
CN(C)c1ccc(/C=C/C(=O)c2ccc(-n3cc(CN4CCN(c5cc6c(cc5F)c(=O)c(C(=O)O)cn6C5CC5)CC4)nn3)cc2)cc1 [Compound 4h, (E)-1-cyclopropyl-7–(4-((1–(4-(3-(4-(dimethylamino)phenyl)acryloyl)phenyl)-1H-1,2,3-triazol-4-yl)methyl)piperazin-1-yl)-6-fluoro-4-oxo-1,4-dihydroquinoline-3-carboxylic acid] | 8.04 | 44.3 | 80.5 | 86.2 | 89.6 | 104 | 109 | 96 | 69.8 | 75.5 | 61.9 | 73.7 | 94.8 | 70.9 | 86.4 | 101 | 81.3 | 76.2 | 86.7 | 69.9 | activity at 10 µM [21]: 84.7%; activity at 10 µM [22]: 103%; activity at 10 µM [23]: 95.5%; activity at 10 µM [24]: 98.8%; activity at 10 µM [25]: 86%; activity at 10 µM [26]: 65%; activity at 10 µM [27]: 77.6%
O=C(/C=C/c1ccc(Br)cc1)c1ccc(-n2cc(CN3CCN(c4cc5c(cc4F)c(=O)c(C(=O)O)cn5C4CC4)CC3)nn2)cc1 [Compound 4d, (E)-7-(4-((1-(4-(3-(4-bromophenyl)acryloyl)phenyl)-1H-1,2,3-triazol-4-yl)methyl)piperazin-1-yl)-1-cyclopropyl-6-fluoro-4-oxo-1,4-dihydroquinoline-3-carboxylic acid] | 17.3 | 6.02 | 71.2 | 79.7 | 84.7 | 97.8 | 92.7 | 87.7 | 68.7 | 66.4 | 65.4 | 92.5 | 96.7 | 55.7 | 76.7 | 112 | 85.4 | 88 | 101 | 79.4 | activity at 10 µM [21]: 79%; activity at 10 µM [22]: 85.6%; activity at 10 µM [23]: 102%; activity at 10 µM [24]: 98.8%; activity at 10 µM [25]: 60.7%; activity at 10 µM [26]: 72.2%; activity at 10 µM [27]: 72.8%
COc1ccc(/C=C/C(=O)c2ccc(-n3cc(CN4CCN(c5cc6c(cc5F)c(=O)c(C(=O)O)cn6C5CC5)CC4)nn3)cc2)cc1 [Compound 4g, (E)-1-Cyclopropyl-6-fluoro-7-(4-((1-(4-(3-(4-methoxyphenyl)acryloyl)phenyl)-1H-1,2,3-triazol-4-yl)methyl)piperazin-1-yl)-4-oxo-1,4-dihydroquinoline-3-carboxylic acid] | 2.68 | 11.5 | 65.3 | 81.6 | 89 | 92.4 | 100 | 84.8 | 75.5 | 88.1 | 65.1 | 90 | 94.4 | 75 | 84.1 | 97.1 | 85.5 | 84.8 | 93.4 | 59 | activity at 10 µM [21]: 84.6%; activity at 10 µM [22]: 94.8%; activity at 10 µM [23]: 99.1%; activity at 10 µM [24]: 99%; activity at 10 µM [25]: 67.5%; activity at 10 µM [26]: 78.1%; activity at 10 µM [27]: 74.6%

Source: PMC9116245, “New 1,2,3-triazole linked ciprofloxacin-chalcones induce DNA damage by inhibiting human topoisomerase I& II and tubulin polymerization” (Journal of Enzyme Inhibition and Medicinal Chemistry, 2022)
